The data set is described as follows: physchem.

`CCNC(=O)[C@@H]1CCCN1C(=O)[C@H](CCCNC(=N)N)NC(=O)[C@H](CC(C)C)NC(=O)[C@@H](Cc1c(C)[nH]c2ccccc12)NC(=O)[C@H](Cc1ccc(O)cc1)NC(=O)[C@H](CO)NC(=O)[C@H](Cc1c[nH]c2ccccc12)NC(=O)[C@H](Cc1c[nH]cn1)NC(=O)[C@@H]1CCC(=O)N1` [avoreline, 5-oxo-L-prolyl-L-histidil-L-tryptophil-L-seryl-L-tyrosil-2-methyl-D-tryptophil-L-leucyl-L-arginyl-N-ethyl-prolylamide] returned a pKa (pKa) of 9.7, a pKa (pKa (first value)) of 6.15 and a pKa (pKa (third printed value)) of 12.

(Values after US6620422B1, “Compositions containing a peptide and polylactic-glycolic acid suitable for preparing subcutaneous implants with an extended release period” (Mediolanum Farmaceutici S.p.A., priority 1998, dated 2003).)
